Data on 34 molecules can be found in patent publication US20260234101A1, “COMPOUNDS, THEIR COMPOSITION AND THEIR USE AS NEMATICIDES” (priority 2023, published 2026).

Data set [1] deals with Root-knot nematodes (Meloidogyne spp), juveniles (J2). Put plainly: Nematocidal activity against root-knot nematodes, 24 well bioassay plate, percent mortality. It is filed as in vivo. The following applies: 70-100 J2 juveniles per well, 22±2° C., 70±5% RH, dead/inactive counted at 24, 48, 72 and 96 hours, read-out: Rating (% Mortality). Here is the method: The compound to be tested (4 mg) was dissolved in 40 μl of DMSO to make 100,000 PPM concentration stock solution. The clear solution was obtained by vortexing. The nematode suspension (250 μl) having 70-100 juveniles (J2) of Root-knot nematodes Meloidogyne spp. pipetted out to each cell of 24 well bioassay plate. Sterile water (1 ml) was pipetted out in fresh 2.5 ml Eppendorf micro-centrifuge tubes. The desired concentration (500 ppm) of the compound was prepared by adding stock solution in 2.5 ml Eppendorf micro-centrifuge tubes. For each treatment 4 replications were maintained. The bioassay plates were incubated at 22±2° C. and 70±5% RH in humidity chambers.

Data set [2] is described as follows: Stability studies: storage at room temperature and accelerated storage condition, purity estimated by HPLC. It is filed as physicochemical. The following applies: properly packed material; for purity estimated by HPLC, Day 14, Condition 54° C. ± 2° C. / purity estimated by HPLC, Day Zero, Condition 54° C. ± 2° C.: 54° C. ± 2° C. (accelerated storage). An excerpt:
The compounds of present invention were stored under conditions as shown in below table [room temperature and on accelerated storage condition (ATS)] and the purity was estimated by HPLC. The properly packed material was subjected to the conditions mentioned in the table below.

For orientation: mortality means the percentage killed. Regarding `C=CCc1cc(/C=N/[C@@H](CCCNC(=N)N)C(=O)O)c(O)c(OC)c1` [Example 20, (E)-N^2-{[2-hydroxy-3-methoxy-5-(prop-2-en-1-yl)phenyl]methylidene}-L-arginine], the mortality at 500 ppm in data set [1] was 70 to 100%. On the same count and under the same terms, for `N=C(N)NCCC[C@H](/N=C/c1c(O)cccc1F)C(=O)O` [Example 8, (E)-N^2-[(6-fluoro-2-hydroxyphenyl)methylidene]-L-arginine] the value was 70 to 100%; for `N=C(N)NCCC[C@H](/N=C/c1cc(OC(F)(F)F)ccc1O)C(=O)O` [Example 14, (E)-N^2-{[2-hydroxy-5-(trifluoromethoxy)phenyl]methylidene}-L-arginine], 50 to 69%; for `C=CCc1cccc(/C=N/[C@@H](CCCNC(=N)N)C(=O)O)c1OC` [Example 32, (E)-N2-{[2-methoxy-3-(prop-2-en-1-yl)phenyl]methylidene}-L-arginine], 50 to 69%. Take `COc1ccc(/C=N/[C@@H](CCCNC(=N)N)C(=O)O)c(OC)c1` [Example 13, (E)-N^2-[(2,4-dimethoxyphenyl)methylidene]-L-arginine]: in data set [1], the mortality at 500 ppm was in the range of 0 to 49%. Still for that read-out and setting: to `N=C(N)NCCC[C@H](/N=C/c1cccnc1)C(=O)O` [Example 29, (E)-N2-[(pyridin-3-yl)methylidene]-L-arginine] belongs 50 to 69%.

Regarding `N=C(N)NCCC[C@H](/N=C/c1ccc(CO)o1)C(=O)O` [Example 27, (E)-N^2-{[5-(hydroxymethyl)furan-2-yl]methylidene}-L-arginine], the mortality at 500 ppm in data set [1] is 50 to 69%. On the same count and under the same terms, to `CSc1ccc(/C=N/[C@@H](CCCNC(=N)N)C(=O)O)cc1` [Example 19, (E)-N^2-{[4-(methylsulfanyl)phenyl]methylidene}-L-arginine] belongs 50 to 69%; to `C=CCc1cc(/C=N/[C@@H](CCCNC(=N)N)C(=O)O)c(OC)c(OC)c1` [Example 21, (E)-N^2-{[2,3-dimethoxy-5-(prop-2-en-1-yl)phenyl]methylidene}-L-arginine], 70 to 100%. For the molecule `N=C(N)NCCC[C@H](/N=C/c1ccc2c(c1)OCO2)C(=O)O` [Example 24, (E)-N^2-[(2H-1,3-benzodioxol-5-yl)methylidene]-L-arginine], the mortality at 500 ppm in data set [1] is 50 to 69%. In data set [2], the “purity estimated by HPLC, Day 14, Condition 25° C. ± 2° C.” value is given as 98.80; the “purity estimated by HPLC, Day 14, Condition 54° C. ± 2° C.” value is reported as 98.90; the “purity estimated by HPLC, Day Zero, Condition 25° C. ± 2° C.” value is given as 98.90; the “purity estimated by HPLC, Day Zero, Condition 54° C. ± 2° C.” value is reported as 98.75. Consider `Cc1cc(O)cc(O)c1/C=N/[C@@H](CCCNC(=N)N)C(=O)O` [Example 12, (E)-N^2-[(2,4-dihydroxy-6-methylphenyl)methylidene]-L-arginine], for which, in data set [1], the mortality at 500 ppm was 0 to 49%. The same measure, in the same setting: to `N=C(N)NCCC[C@H](/N=C/c1ccccc1C(F)(F)F)C(=O)O` [Example 1, (E)-N^2-{[2-(trifluoromethyl)phenyl]methylidene}-L-arginine] belongs 70 to 100%; to `N=C(N)NCCC[C@H](/N=C/c1cccc2c1OCO2)C(=O)O` [Example 34, (E)-N2-[(2H-1,3-benzodioxol-4-yl)methylidene]-L-arginine], 50 to 69%; to `N=C(N)NCCC[C@H](/N=C/c1cc(F)cc(Cl)c1O)C(=O)O` [Example 15, (E)-N^2-[(3-chloro-5-fluoro-2-hydroxyphenyl)methylidene]-L-arginine], 0 to 49%.

In the case of `N=C(N)NCCC[C@H](/N=C/c1ccsc1)C(=O)O` [Example 31, (E)-N2-[(thiophen-3-yl)methylidene]-L-arginine], in data set [1], the mortality at 500 ppm was in the range of 50 to 69%. With `N=C(N)NCCC[C@H](/N=C/c1c(O)cccc1Cl)C(=O)O` [Example 4, (E)-N^2-[(6-chloro-2-hydroxyphenyl)methylidene]-L-arginine], the mortality at 500 ppm in data set [1] was 50 to 69%. As to `COc1cccc(O)c1/C=N/[C@@H](CCCNC(=N)N)C(=O)O` [Example 11, (E)-N^2-[(2-hydroxy-6-methoxyphenyl)methylidene]-L-arginine], the mortality at 500 ppm in data set [1] was in the range of 70 to 100%. Also, in data set [2], the “purity estimated by HPLC, Day 14, Condition 25° C. ± 2° C.” value is on record as 99.00; the “purity estimated by HPLC, Day 14, Condition 54° C. ± 2° C.” value was 98.85; the “purity estimated by HPLC, Day Zero, Condition 25° C. ± 2° C.” value is given as 99.10; the “purity estimated by HPLC, Day Zero, Condition 54° C. ± 2° C.” value is reported as 99.20. As for `N=C(N)NCCC[C@H](/N=C/c1c[nH]c2ccccc12)C(=O)O` [Example 23, (E)-N^2-[(1H-indol-3-yl)methylidene]-L-arginine], in data set [1], the mortality at 500 ppm lay in the range of 50 to 69%.

`N=C(N)NCCC[C@H](/N=C/c1cccc(C(F)(F)F)c1)C(=O)O` [Example 2, (E)-N^2-{[3-(trifluoromethyl)phenyl]methylidene}-L-arginine]: the mortality at 500 ppm in data set [1] lay in the range of 70 to 100%. For the same molecule, in data set [2], the “purity estimated by HPLC, Day 14, Condition 25° C. ± 2° C.” value is 99.70; the “purity estimated by HPLC, Day 14, Condition 54° C. ± 2° C.” value is recorded as 99.55; the “purity estimated by HPLC, Day Zero, Condition 25° C. ± 2° C.” value is recorded as 99.71; the “purity estimated by HPLC, Day Zero, Condition 54° C. ± 2° C.” value is recorded as 99.60. Regarding `COc1cccc(/C=N/[C@@H](CCCNC(=N)N)C(=O)O)c1O` [Example 9, (E)-N^2-[(2-hydroxy-3-methoxyphenyl)methylidene]L-arginine], the mortality at 500 ppm in data set [1] was in the range of 0 to 49%.

Regarding `Cc1ccc(/C=N/[C@@H](CCCNC(=N)N)C(=O)O)o1` [Example 26, (E)-N^2-[(5-methylfuran-2-yl)methylidene]-L-arginine], in data set [1], the mortality at 500 ppm is 70 to 100%. Besides, in data set [2], the “purity estimated by HPLC, Day 14, Condition 25° C. ± 2° C.” value is 99.10; the “purity estimated by HPLC, Day 14, Condition 54° C. ± 2° C.” value is 99.00; the “purity estimated by HPLC, Day Zero, Condition 25° C. ± 2° C.” value is 99.20; the “purity estimated by HPLC, Day Zero, Condition 54° C. ± 2° C.” value is recorded as 99.00. As for `COc1cc(/C=N/[C@@H](CCCNC(=N)N)C(=O)O)cc2c1OCO2` [Example 33, (E)-N2-[(7-methoxy-2H-1,3-benzodioxol-5-yl)methylidene]-L-arginine], in data set [1], the mortality at 500 ppm was in the range of 50 to 69%.

For the molecule `N=C(N)NCCC[C@H](/N=C/c1cccc(F)c1O)C(=O)O` [Example 5, (E)-N^2-[(3-fluoro-2-hydroxyphenyl)methylidene]-L-arginine], in data set [1], the mortality at 500 ppm fell in the range of 70 to 100%. Same read-out and setting: for `COc1ccc(O)c(/C=N/[C@@H](CCCNC(=N)N)C(=O)O)c1` [Example 10, (E)-N^2-[(2-hydroxy-5-methoxyphenyl)methylidene]-L-arginine] the value was 50 to 69%. The same measure, in the same setting: to `N=C(N)NCCC[C@H](/N=C/c1cc(F)ccc1O)C(=O)O` [Example 7, (E)-N^2-[(5-fluoro-2-hydroxyphenyl)methylidene]-L-arginine] belongs 70 to 100%.

With `N=C(N)NCCC[C@H](/N=C/c1ccco1)C(=O)O` [Example 25, (E)-N^2-[(furan-2-yl)methylidene]-L-arginine], the mortality at 500 ppm in data set [1] is 70 to 100%.

On to `N=C(N)NCCC[C@H](/N=C/c1ccc(Cl)cc1O)C(=O)O` [Example 3, (E)-N^2-[(4-chloro-2-hydroxyphenyl)methylidene]-L-arginine], for which, in data set [1], the mortality at 500 ppm is 50 to 69%. Same read-out and setting: for `N=C(N)NCCC[C@H](/N=C/c1ccc(F)cc1O)C(=O)O` [Example 6, (E)-N^2-[(4-fluoro-2-hydroxyphenyl)methylidene]-L-arginine] the value was 70 to 100%.

Turning to `C=CCc1cccc(/C=N/[C@@H](CCCNC(=N)N)C(=O)O)c1O` [Example 22, (E)-N2-{[2-hydroxy-3-(prop-2-en-1-yl)phenyl]methylidene}-L-arginine], in data set [1], the mortality at 500 ppm lay in the range of 70 to 100%. In addition, in data set [2], the “purity estimated by HPLC, Day 14, Condition 25° C. ± 2° C.” value is reported as 99.50; the “purity estimated by HPLC, Day 14, Condition 54° C. ± 2° C.” value is on record as 99.30; the “purity estimated by HPLC, Day Zero, Condition 25° C. ± 2° C.” value is 99.60; the “purity estimated by HPLC, Day Zero, Condition 54° C. ± 2° C.” value is reported as 99.63. Consider `COc1ccc(/C=N/[C@@H](CCCNC(=N)N)C(=O)O)cc1Cl` [Example 18, (E)-N^2-[(3-chloro-4-methoxyphenyl)methylidene]-L-arginine], for which the mortality at 500 ppm in data set [1] was in the range of 50 to 69%.

With `COc1ccc(/C=N/[C@@H](CCCNC(=N)N)C(=O)O)cc1` [Example 16, (E)-N^2-[(4-methoxyphenyl)methylidene]-L-arginine], the mortality at 500 ppm in data set [1] is 70 to 100%.

With `N=C(N)NCCC[C@H](/N=C/c1cccc2ccccc12)C(=O)O` [Example 28, (E)-N2-[(naphthalen-1-yl)methylidene]-L-arginine], the mortality at 500 ppm in data set [1] was 50 to 69%. On the same count and under the same terms, to `COc1ccc(/C=N/[C@@H](CCCNC(=N)N)C(=O)O)cc1O` [Example 17, (E)-N^2-[(3-hydroxy-4-methoxyphenyl)methylidene]-L-arginine] belongs 0 to 49%. Consider `N=C(N)NCCC[C@H](/N=C/c1ccc2ccccc2c1)C(=O)O` [Example 30, (E)-N2-[(naphthalen-2-yl)methylidene]-L-arginine], for which, in data set [1], the mortality at 500 ppm was in the range of 70 to 100%. In data set [2], the “purity estimated by HPLC, Day 14, Condition 25° C. ± 2° C.” value is 99.65; the “purity estimated by HPLC, Day 14, Condition 54° C. ± 2° C.” value is 99.45; the “purity estimated by HPLC, Day Zero, Condition 25° C. ± 2° C.” value is recorded as 99.70; the “purity estimated by HPLC, Day Zero, Condition 54° C. ± 2° C.” value is 99.65.
